As usually defined, the IC50 is the concentration at which inhibition is half-maximal.

The test system of the first experiment is p-ERK in AsPC-1 cells (KRAS G12D mutation). As to the kind of experiment: Cell p-ERK assay (HTRF) in AsPC-1 cells. The experiment is classed as cell-based, human. The settings on record: AsPC-1 cells, 3 h compound incubation, HTRF p-ERK T202/Y204; read-out: AsPC-1 p-ERK IC50. A digest of the protocol:
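AsPC-1 (10000/well) or NCI-H441 (20000/well) cells were seeded overnight, then treated 3 h at 37° C. with 3.16-fold compound dilutions (0.1% DMSO final). Lysates were probed 4 h for phospho-ERK T202/Y204 by HTRF; inhibition versus DMSO and blank wells gave IC50 from four-parameter fits.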
(In TR-FRET formats the signal depends on donor and acceptor labels being close together.)
As for `CO[C@@H](C)c1ncc(C#CCN2CCCOCC2)cc1-c1c2c3cc(ccc3n1CC(F)(F)F)-c1csc(n1)C[C@H](NC(=O)[C@H]1[C@H](C)[C@@H]1C)C(=O)N1CCC[C@H](N1)C(=O)OCC(C)(C)C2` (atropisomer, axis not shown; (Ra)) [Compound Z700, N-((6^3S,4S,Z)-1^1-(2,2,2-trifluoroethyl)-(Ra)-1^2-(2-((S)-1-methoxyethyl)-(5-(3-(1,4-oxazepan-4-yl)prop-1-yn-1-yl))-pyridin-3-yl)-10,10-dimethyl-5,7-dioxo-6^1,6^2,6^3,6^4,6^5,6^6-hexahydro-1^1H-8-oxa-2(4,2)-thiazola-1(5,3)-indola-6(1,3)-pyridazinacycloundecaphane-4-yl)-2,3-dimethylcyclopropane-1-carboxamide], the IC50 came to 0.16 nM. As to `CCn1c(-c2cc(C#CCN(C)CCOC)cnc2[C@H](C)OC)c2c3cc(ccc31)-c1csc(n1)C[C@H](NC(=O)[C@H]1[C@H](C)[C@@H]1C)C(=O)N1CCC[C@H](N1)C(=O)OCC(C)(C)C2` (atropisomer, axis not shown; (Ra)) [Compound Z788], the IC50 amounted to 0.38 nM. As to `CCn1c(-c2cc(C#CCN3C4CCC3COC4)cnc2[C@H](C)OC)c2c3cc(ccc31)-c1csc(n1)C[C@H](NC(=O)[C@H]1[C@H](C)[C@@H]1C)C(=O)N1CCC[C@H](N1)C(=O)OCC(C)(C)C2` (atropisomer, axis not shown; (Ra)) [Compound Z711, (1r,2R,3S)—N-((6^3S,4S,Z)—(Ra)-1^2-(5-(3-(3-oxa-8-azabicyclo[3.2.1]octan-8-yl)prop-1-yn-1-yl)-2-((S)-1-methoxyethyl)pyridin-3-yl)-1^1-ethyl-10,10-dimethyl-5,7-dioxo-6^1,6^2,6^3,6^4,6^5,6^6-hexahydro-1^1H-8-oxa-2(4,2)-thiazola-1(5,3)-indola-6(1,3)-pyridazinacycloundecaphane-4-yl)-2,3-dimethylcyclopropane-1-carboxamide], the half-inhibitory concentration (IC50) worked out at 0.32 nM. Regarding `CCn1c(-c2cc(C#CCN3CCOC[C@H]3C)cnc2[C@H](C)OC)c2c3cc(ccc31)-c1csc(n1)C[C@H](NC(=O)[C@H]1[C@H](C)[C@@H]1C)C(=O)N1CCCC(N1)C(=O)OCC(C)(C)C2` (atropisomer, axis not shown; (Ra)) [Compound Z813], the IC50 amounted to 0.08 nM.

The same experiment, now with this note: Homo sapiens, ASPC1, 3 h, AsPC-1 cells, 3 h compound incubation, HTRF p-ERK T202/Y204; read-out: AsPC-1 p-ERK IC50.
As to `CCn1c(-c2cc(C#CCN3CCC3)cnc2[C@H](C)OC)c2c3cc(ccc31)-c1csc(n1)C[C@H](NC(=O)[C@H]1[C@H](C)[C@@H]1C)C(=O)N1CCC[C@H](N1)C(=O)OCC(C)(C)C2` (single isomer, unassigned) [Compound Z554], the IC50 stood at 0.67 nM. As for `CCn1c(-c2cc(C#CCN3CCCOCC3)cnc2[C@H](C)OC)c2c3cc(ccc31)-c1csc(n1)C[C@H](NC(=O)[C@H]1[C@H](C)[C@@H]1C)C(=O)N1CCC[C@H](N1)C(=O)OCC(C)(C)C2` (single isomer, unassigned) [Compound Z504], the half-maximal inhibitory concentration (IC50) stood at 0.16 nM. Take `CCn1c(-c2cc(C#CCN3CCCOCC3)cnc2[C@H](C)OC)c2c3cc(ccc31)-c1csc(n1)C[C@H](NC(=O)[C@H]1C[C@@H]1C)C(=O)N1CCC[C@H](N1)C(=O)OCC(C)(C)C2` (single isomer, unassigned) [Compound Z604]: the half-inhibitory concentration (IC50) was found to be 0.51 nM.

In the case of `CCn1c(-c2cc(C#CCN3CCCOCC3)cnc2[C@H](C)OC)c2c3cc(ccc31)-c1csc(n1)C[C@H](NC(=O)CC1CC1)C(=O)N1CCC[C@H](N1)C(=O)OCC(C)(C)C2` (atropisomer, axis not shown; (Ra)) [Compound Z915], the IC50 worked out at 1.26 nM. On to `CCn1c(-c2cc(C#CCN3CCCOCC3)cnc2[C@H](C)OC)c2c3cc(ccc31)-c1csc(n1)C[C@H](NC(=O)CC(C)C)C(=O)N1CCC[C@H](N1)C(=O)OCC(C)(C)C2` (single isomer, unassigned) [Compound Z803], for which the 50% inhibitory concentration (IC50) is 0.85 nM. With `CCn1c(-c2cc(C#CCN3CCN(C)C(=O)C3)cnc2[C@H](C)OC)c2c3cc(ccc31)-c1csc(n1)C[C@H](NC(=O)[C@H]1[C@H](C)[C@@H]1C)C(=O)N1CCC[C@H](N1)C(=O)OCC(C)(C)C2` (atropisomer, axis not shown; (Ra)) [Compound Z793], the 50% inhibitory concentration (IC50) worked out at 0.19 nM.

On to `CCn1c(-c2cc(C#C[C@@H]3COCCN3C)cnc2[C@H](C)OC)c2c3cc(ccc31)-c1csc(n1)C[C@H](NC(=O)[C@H]1[C@H](C)[C@@H]1C)C(=O)N1CCC[C@H](N1)C(=O)OCC(C)(C)C2` (atropisomer, axis not shown; (Ra)) [Compound Z672, (1r,2R,3S)—N-((6^3S,4S,Z)-1^1-ethyl-(Ra)-1^2-(2-((S)-1-methoxyethyl)-5-(((R)-4-methylmorpholin-3-yl)ethynyl)pyridin-3-yl)-10,10-dimethyl-5,7-dioxo-6^1,6^2,6^3,6^4,6^5,6^6hexahydro-1^1H-8-oxa-2(4,2)-thiazola-1(5,3)-indola-6(1,3)-pyridazinacycloundecaphane-4-yl)-2,3-dimethylcyclopropane-1-carboxamide], for which the IC50 amounted to 0.39 nM.
